According to patent US20030216413A1, “Catecholamine pharmaceutical compositions and methods” (priority 2000, published 2003):
Counter-ions that a name gives are not always drawn.

Tests used:
[1] = daily injections of 1 mg/kg for seven days; cited from earlier work
[2] = Treatment of a patient with asthma (Examples 1-3)
Experimental: A patient presents with asthma complicated by degenerative heart disease and has variously used 0.25% or 1% isoproterenol aerosols, 0.10-0.20 mg epinephrine-bitartrate inhalers, and 90 μg albuterol every day at 4-6 hour intervals. […] The subject is administered an aerosol composition comprising 0.075% isoproterenol and 1.0% ascorbic acid.
A patient presents with asthma and has previously used 90 μg albuterol every day at 4-6 hour intervals. […] The subject is administered composition comprising 50 μg albuterol and […] morphine sulfate.
A patient presents with asthma and has previously used a 0.20 mg/dose epinephrine bitartrate inhaler every day at 6 hour intervals. The subject is administered a composition delivering a unit dose comprising 0.03 mg epinephrine bitatrate and 0.2 mg EDTA from a conventional inhaler.

[3] = 1:100,000 sterile aqueous solution; cited from earlier work
[4] = 1:1000 or 1:10,000 epinephrine in sterile aqueous solution; cited from earlier work
[5] = 1:1000 to 1:10,000 solutions; cited from earlier work

Compound: C[C@H](N)Cc1ccccc1 [D-amphetamine]
- side effects of the typical treatment [1]: Side effects often result

Compound: CC(C)(C)NCC(O)c1ccc(O)c(CO)c1 (centres unmarked) [albuterol]
- adverse side effects ([2]; human, in vivo): unacceptable side effects
- control of asthma / symptom relief ([2]; patient with asthma): not well controlled

Compound: CNC[C@H](O)c1ccc(O)c(O)c1 [epinephrine hydrochloride]
- duration of beneficial effect of conventional treatment [3]: about 15 minutes

Compound: CNC[C@H](O)c1ccc(O)c(O)c1 [epinephrine-bitartrate]
- adverse side effects ([2]; human, in vivo): unacceptable side effects

Compound: CNC[C@H](O)c1ccc(O)c(O)c1 [epinephrine]
- side effects of conventional formulations [4]: fear, anxiety, restlessness, and sleeplessness, dizziness and palpitations
- duration of action of conventional treatment [5]: only a few minutes

Compound: CC(C)NCC(O)c1ccc(O)c(O)c1 (centres unmarked) [isoproterenol]
- adverse side effects ([2]; patient with asthma): unacceptable side effects
